Activity calls are given as the source filed them. The rule behind the calls is not given here.
Assays:
Mus musculus [1] = assay: Antiobesity activity in Sabra mouse assessed as change in body weight at 1 mg/kg, ip administered on day 8, 9, 10, 11, 14, 18, 24 and 32 measured on day 4 relative to control; format: functional; details: route intraperitoneal
Mus musculus [2] = assay: Increase in motor activity Sabra mouse at 1 mg/kg, ip administered on day 8, 9, 10, 11, 14, 18, 24 and 32 measured on day 14 by open field test; format: functional, organism-based; set-up: dose 1 mg/kg
Hypothalamus [3] = assay: Effect on FAAH gene expression in Sabra mouse hypothalamus assessed as change in mRNA level at 1 mg/kg, ip administered on day 8, 9, 10, 11, 14, 18, 24 and 32 by RT-PCR analysis relative to GAPDH; format: functional; details: route intraperitoneal
Hypothalamus [4] = assay: Effect on CAMKK2 gene expression in Sabra mouse hypothalamus assessed as change in mRNA level at 1 mg/kg, ip administered on day 8, 9, 10, 11, 14, 18, 24 and 32 by RT-PCR analysis relative to GAPDH; format: functional; details: route intraperitoneal
Hypothalamus [5] = assay: Effect on 5HT1A gene expression in Sabra mouse hypothalamus assessed as change in mRNA level at 1 mg/kg, ip administered on day 8, 9, 10, 11, 14, 18, 24 and 32 by RT-PCR analysis relative to GAPDH; format: functional; details: route intraperitoneal
Hypothalamus [6] = assay: Effect on CART gene expression in Sabra mouse hypothalamus assessed as change in mRNA level at 1 mg/kg, ip administered on day 8, 9, 10, 11, 14, 18, 24 and 32 by RT-PCR analysis relative to GAPDH; format: functional; details: route intraperitoneal
Hypothalamus [7] = assay: Effect on NPY gene expression in Sabra mouse hypothalamus assessed as change in mRNA level at 1 mg/kg, ip administered on day 8, 9, 10, 11, 14, 18, 24 and 32 by RT-PCR analysis relative to GAPDH; format: functional; details: route intraperitoneal
Hypothalamus [8] = assay: Effect on POMC gene expression in Sabra mouse hypothalamus assessed as change in mRNA level at 1 mg/kg, ip administered on day 8, 9, 10, 11, 14, 18, 24 and 32 by RT-PCR analysis relative to GAPDH; format: functional; details: route intraperitoneal
[9] = target: Transient receptor potential cation channel subfamily V member 1 (Rattus norvegicus) (UniProt O35433); assay: Displacement of [3H]resiniferatoxin from TRPV1 receptor in Wistar rat spinal cord at 10 uM relative to control
[10] = target: T1, Fatty-acid amide hydrolase 1 (Rattus norvegicus) (UniProt P97612); assay: Inhibition of rat brain FAAH using [3H]anandamide as substrate at 10 uM preincubated for 15 mins before substrate addition relative to control
T1 sequence (whole entry): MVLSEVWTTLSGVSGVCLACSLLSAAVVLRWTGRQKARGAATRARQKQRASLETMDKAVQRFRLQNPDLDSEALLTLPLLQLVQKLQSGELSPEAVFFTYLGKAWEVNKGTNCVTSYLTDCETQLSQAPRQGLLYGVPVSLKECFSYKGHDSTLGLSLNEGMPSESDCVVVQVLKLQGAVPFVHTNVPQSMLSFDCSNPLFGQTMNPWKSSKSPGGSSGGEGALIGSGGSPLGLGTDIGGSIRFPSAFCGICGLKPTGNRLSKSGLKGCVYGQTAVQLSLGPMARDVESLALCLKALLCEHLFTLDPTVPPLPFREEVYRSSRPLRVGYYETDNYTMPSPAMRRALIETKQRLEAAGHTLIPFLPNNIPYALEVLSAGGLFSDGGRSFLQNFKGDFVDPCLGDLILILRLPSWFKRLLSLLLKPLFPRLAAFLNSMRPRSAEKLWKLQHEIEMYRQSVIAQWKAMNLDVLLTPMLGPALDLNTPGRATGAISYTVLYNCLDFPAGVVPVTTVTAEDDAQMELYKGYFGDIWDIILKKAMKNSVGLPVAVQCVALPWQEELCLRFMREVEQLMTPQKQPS

[11] = target: Cannabinoid receptor 2 (Homo sapiens) (UniProt P34972); assay: Displacement of [3H]WIN-55,212-2 from human recombinant CB2 receptor expressed in CHO-K1 cells at 10 uM relative to control; format: cell-based
[12] = target: Cannabinoid receptor 1 (Homo sapiens) (UniProt P21554); assay: Displacement of [3H]SR141716A from human CB1 receptor expressed in rat Chem-1 cell membrane at 10 uM relative to control; format: cell membranes
[13] = target: T2, Peroxisome proliferator-activated receptor alpha (Homo sapiens) (UniProt Q07869); assay: Binding affinity to human recombinant PPARalpha expressed in Escherichia coli at 10 uM for 16 hrs by spectrofluorimetric analysis relative to control
T2 sequence (whole entry): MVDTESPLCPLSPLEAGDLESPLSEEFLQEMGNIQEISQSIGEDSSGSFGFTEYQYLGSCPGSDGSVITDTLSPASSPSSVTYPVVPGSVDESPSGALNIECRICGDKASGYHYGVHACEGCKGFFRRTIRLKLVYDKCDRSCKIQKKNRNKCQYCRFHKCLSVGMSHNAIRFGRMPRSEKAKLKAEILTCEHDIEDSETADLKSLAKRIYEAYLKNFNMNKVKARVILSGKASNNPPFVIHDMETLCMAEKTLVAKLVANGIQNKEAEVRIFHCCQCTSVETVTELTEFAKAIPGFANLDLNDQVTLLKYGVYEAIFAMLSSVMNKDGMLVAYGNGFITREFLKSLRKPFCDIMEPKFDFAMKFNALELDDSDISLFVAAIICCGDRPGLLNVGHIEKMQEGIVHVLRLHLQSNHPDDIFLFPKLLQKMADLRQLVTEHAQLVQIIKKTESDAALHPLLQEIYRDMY

Mus musculus [14] = assay: Antiobesity activity in Sabra mouse assessed as change in food consumption at 1 mg/kg, ip administered on day 8, 9, 10, 11, 14, 18, 24 and 32 measured after 6 weeks relative to control; format: functional; details: route intraperitoneal
Mus musculus [15] = assay: Antiobesity activity in Sabra mouse assessed as change in food consumption at 1 mg/kg, ip administered on day 8, 9, 10, 11, 14, 18, 24 and 32 measured after 5 weeks relative to control; format: functional; details: route intraperitoneal
Mus musculus [16] = assay: Antiobesity activity in Sabra mouse assessed as change in food consumption at 1 mg/kg, ip administered on day 8, 9, 10, 11, 14, 18, 24 and 32 measured after 3 weeks relative to control; format: functional; details: route intraperitoneal
Mus musculus [17] = assay: Antiobesity activity in Sabra mouse assessed as change in food consumption at 1 mg/kg, ip administered on day 8, 9, 10, 11, 14, 18, 24 and 32 measured after 4 weeks relative to control; format: functional; details: route intraperitoneal
Mus musculus [18] = assay: Antiobesity activity in Sabra mouse assessed as change in body weight at 1 mg/kg, ip administered on day 8, 9, 10, 11, 14, 18, 24 and 32 measured on day 35 relative to control; format: functional; details: route intraperitoneal
Mus musculus [19] = assay: Antiobesity activity in Sabra mouse assessed as change in body weight at 1 mg/kg, ip administered on day 8, 9, 10, 11, 14, 18, 24 and 32 measured on day 39 relative to control; format: functional; details: route intraperitoneal
Mus musculus [20] = assay: Antiobesity activity in Sabra mouse assessed as change in body weight at 1 mg/kg, ip administered on day 8, 9, 10, 11, 14, 18, 24 and 32 measured on day 30 relative to control; format: functional; details: route intraperitoneal
Mus musculus [21] = assay: Antiobesity activity in Sabra mouse assessed as change in body weight at 1 mg/kg, ip administered on day 8, 9, 10, 11, 14, 18, 24 and 32 measured on day 25 relative to control; format: functional; details: route intraperitoneal
Mus musculus [22] = assay: Antiobesity activity in Sabra mouse assessed as change in body weight at 1 mg/kg, ip administered on day 8, 9, 10, 11, 14, 18, 24 and 32 measured on day 14 relative to control; format: functional; details: route intraperitoneal
Mus musculus [23] = assay: Antiobesity activity in Sabra mouse assessed as change in body weight at 1 mg/kg, ip administered on day 8, 9, 10, 11, 14, 18, 24 and 32 measured on day 21 relative to control; format: functional; details: route intraperitoneal
Mus musculus [24] = assay: Antiobesity activity in Sabra mouse assessed as change in body weight at 1 mg/kg, ip administered on day 8, 9, 10, 11, 14, 18, 24 and 32 measured on day 9 relative to control; format: functional; details: route intraperitoneal
Mus musculus [25] = assay: Antiobesity activity in Sabra mouse assessed as change in food consumption at 1 mg/kg, ip administered on day 8, 9, 10, 11, 14, 18, 24 and 32 measured after 2 weeks relative to control; format: functional; details: route intraperitoneal

Sequence of Cannabinoid receptor 2 (Homo sapiens) (P34972 whole entry): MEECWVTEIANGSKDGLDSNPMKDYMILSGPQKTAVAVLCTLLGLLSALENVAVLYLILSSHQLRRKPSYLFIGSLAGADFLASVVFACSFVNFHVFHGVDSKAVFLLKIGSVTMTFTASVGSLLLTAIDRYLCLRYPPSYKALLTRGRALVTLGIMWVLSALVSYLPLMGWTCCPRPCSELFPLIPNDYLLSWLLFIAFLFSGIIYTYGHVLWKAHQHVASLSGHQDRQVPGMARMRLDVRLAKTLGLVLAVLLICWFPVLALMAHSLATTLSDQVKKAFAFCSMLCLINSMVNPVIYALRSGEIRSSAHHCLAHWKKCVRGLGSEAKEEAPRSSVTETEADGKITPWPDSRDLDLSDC
Sequence of Cannabinoid receptor 1 (Homo sapiens) (P21554 whole entry): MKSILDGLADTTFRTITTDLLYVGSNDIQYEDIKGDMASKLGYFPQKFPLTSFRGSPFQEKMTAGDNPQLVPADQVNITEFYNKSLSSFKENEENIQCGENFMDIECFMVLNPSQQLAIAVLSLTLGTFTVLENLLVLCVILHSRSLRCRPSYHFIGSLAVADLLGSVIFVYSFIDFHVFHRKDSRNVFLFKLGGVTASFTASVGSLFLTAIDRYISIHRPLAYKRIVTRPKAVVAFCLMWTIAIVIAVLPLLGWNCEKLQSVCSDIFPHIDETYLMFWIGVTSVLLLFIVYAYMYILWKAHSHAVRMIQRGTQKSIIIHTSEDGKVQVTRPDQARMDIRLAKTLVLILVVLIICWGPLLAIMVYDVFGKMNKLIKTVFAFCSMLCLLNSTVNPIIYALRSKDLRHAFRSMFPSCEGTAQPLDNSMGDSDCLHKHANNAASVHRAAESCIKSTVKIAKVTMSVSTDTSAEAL
Sequence of Transient receptor potential cation channel subfamily V member 1 (Rattus norvegicus) (O35433 whole entry): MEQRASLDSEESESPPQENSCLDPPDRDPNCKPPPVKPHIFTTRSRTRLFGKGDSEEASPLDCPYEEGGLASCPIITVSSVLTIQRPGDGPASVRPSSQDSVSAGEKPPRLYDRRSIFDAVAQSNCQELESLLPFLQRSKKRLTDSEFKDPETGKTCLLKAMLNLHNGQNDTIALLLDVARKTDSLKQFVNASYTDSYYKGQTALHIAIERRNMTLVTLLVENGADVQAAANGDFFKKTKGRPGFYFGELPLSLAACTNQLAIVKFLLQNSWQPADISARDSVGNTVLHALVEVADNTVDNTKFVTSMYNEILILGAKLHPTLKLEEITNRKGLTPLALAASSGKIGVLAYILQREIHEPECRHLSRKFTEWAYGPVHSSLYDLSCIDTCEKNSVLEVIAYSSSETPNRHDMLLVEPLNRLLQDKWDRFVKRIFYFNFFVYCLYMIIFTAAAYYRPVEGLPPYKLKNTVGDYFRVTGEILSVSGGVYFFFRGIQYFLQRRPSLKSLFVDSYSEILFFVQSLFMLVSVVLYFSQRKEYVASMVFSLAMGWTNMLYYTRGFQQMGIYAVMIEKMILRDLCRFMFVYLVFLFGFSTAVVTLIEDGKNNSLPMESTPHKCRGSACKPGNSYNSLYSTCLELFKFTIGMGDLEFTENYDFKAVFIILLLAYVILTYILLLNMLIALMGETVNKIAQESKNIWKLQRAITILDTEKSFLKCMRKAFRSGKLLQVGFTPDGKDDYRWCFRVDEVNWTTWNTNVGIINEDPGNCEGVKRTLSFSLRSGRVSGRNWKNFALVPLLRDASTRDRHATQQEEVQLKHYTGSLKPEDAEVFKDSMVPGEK

Row | SMILES | Activity (Mus musculus [1]) [%] | Activity (Hypothalamus [3]) [%] | Activity (Hypothalamus [4]) [%] | Activity (Hypothalamus [5]) [%] | Activity (Hypothalamus [6]) [%] | Activity (Hypothalamus [7]) [%] | Activity (Hypothalamus [8]) [%] | inhibition [11] [%] | inhibition [12] [%] | Activity [13] [%] | Activity (Mus musculus [14]) [%] | Activity (Mus musculus [15]) [%] | Activity (Mus musculus [16]) [%] | Activity (Mus musculus [17]) [%] | Activity (Mus musculus [18]) [%] | Activity (Mus musculus [19]) [%] | Activity (Mus musculus [20]) [%] | Activity (Mus musculus [21]) [%] | Activity (Mus musculus [22]) [%] | Activity (Mus musculus [23]) [%] | also measured
1 | CCCCCCCC/C=C\CCCCCCCC(=O)N[C@@H](CO)C(C)C | 0.4 | -28 | -2 | 17 | 44 | 8 | 31 | 5 | 36 | 0 | 77.3 | 80.6 | 78.1 | 81.8 | -6 | -6.7 | -4.7 | -3.3 | -3.1 | -1.7 | Activity (Mus musculus [2]): Active; inhibition [9]: 3%; inhibition [10]: 8%; Activity (Mus musculus [24]): -0.8%; Activity (Mus musculus [25]): 79.4%
2 | CCCCCCCC/C=C/CCCCCCCC(=O)N[C@H](CO)C(C)C | 3.1 | 15 | 62 | -9 | -11 | 69 | 10 | 5 | 8 | 0 | 104.5 | 109.2 | 108.1 | 104.9 | 1.6 | 0 | 0.2 | 0.7 | 1 | -0.1 | inhibition [9]: 6%; inhibition [10]: 7%; Activity (Mus musculus [24]): -0.1%; Activity (Mus musculus [25]): 98.5%
3 | CCCCCCCC/C=C/CCCCCCCC(=O)N[C@@H](CO)C(C)C | -2.3 | -46 | 8 | -18 | 25 | -9 | 5 | 0 | 7 | 0 | 109.1 | 111.4 | 112 | 108 | 1.4 | -1 | 0.2 | -1.1 | -0.3 | -1 | Activity (Mus musculus [2]): inactive; inhibition [10]: 13%; Activity (Mus musculus [24]): -1.7%; Activity (Mus musculus [25]): 102.9%
4 | CCCCCCCCCCCCCCCC(=O)N[C@H](CO)C(C)C | 1.9 | 15 | 15 | -1 | -13 | -52 | 2 | 0 | 21 | 2 | 81.4 | 97.4 | 96.8 | 85.9 | -8.5 | -6.7 | -7.1 | -4.9 | -2.2 | 3 | Activity (Mus musculus [2]): inactive; Activity (Mus musculus [24]): -2.1%; Activity (Mus musculus [25]): 97%

Reference: ChEMBL document CHEMBL2321853, “Novel acylethanolamide derivatives that modulate body weight through enhancement of hypothalamic pro-opiomelanocortin (POMC) and/or decreased neuropeptide Y (NPY)” (J Med Chem, 2013)
